Experimental data from PMC5423501 (The Oncologist, 2017).
“Also recorded” adds a separate entry of the source. Read-outs that look alike come from different tables or passages of the source.

Key:
[1] = Steady-state plasma pharmacokinetics, cycle 1 day 8; assay type: in vivo, human
patients with HCC = settings: phase III trial in HCC; cited from earlier work
[2] = system: patients with HIV and HCC; settings: 27 patients with HIV and HCC, 400 mg sorafenib twice daily, retrospective; cited from earlier work
Kaposi sarcoma = experiment: KS response assessment; assay type: in vivo, human
IL‐12p40 = experiment: Serum factors, V-Plex assay, baseline vs end of cycle 1; assay type: in vivo, human; settings: baseline to end of cycle 1; p = .002
bFGF = experiment: as above; assay type: in vivo, human; settings: baseline to end of cycle 1; p = .018
[3] = system: patients with Kaposi sarcoma; settings: in vivo
[4] = system: patients with HIV and cancer; settings: cited from earlier work

With `CNC(=O)c1cc(Oc2ccc(NC(=O)Nc3ccc(Cl)c(C(F)(F)F)c3)cc2)cc[n+]1[O-]` [Sorafenib N-Oxide, Sorafenib N‐oxide] the “decrease of AUCTAU of sorafenib-N-oxide in patients receiving ritonavir” value ([1]; trend, p = .08) was 3.8 fold.
In the case of `CNC(=O)c1cc(Oc2ccc(NC(=O)Nc3ccc(Cl)c(C(F)(F)F)c3)cc2)ccn1` [Sorafenib], the “CMAX and AUC0-12h of sorafenib compared with literature” value ([1]; 200 mg dose at steady state) is listed as “within reported ranges”, the “effect of ritonavir on steady-state AUCTAU (exposure) of sorafenib” value ([1]; cohort on ritonavir vs not on ritonavir) is listed as “not significantly affected by ritonavir; also recorded: only modestly affected” and the “diarrhea, grade 3–4 AE” value (patients with HCC) is listed as 8%. For the same compound, the “hypertension, grade 3–4 AE” value (patients with HCC) was 2%, the “palmar-plantar erythrodysesthesia syndrome, grade 3–4 AE” value (patients with HCC) was 8% and the “diarrhea, grade 3–4 AE” value [2] was 15%. The “hypertension, grade 3–4 AE” value [2] was 11%, the “palmar-plantar erythrodysesthesia syndrome, grade 3–4 AE” value [2] was 15% and the “ORR in patients evaluable for response” value (Kaposi sarcoma; 2/7, 95% CI 4%–71%) was 29%. The “ORR in all patients” value (Kaposi sarcoma; 2/10, 95% CI 3%–56%) was 20%, the “Median duration of SD” value (Kaposi sarcoma; range 1–5, 21-day cycles) was 4 cycles and the “change in serum IL-12p40” value (IL‐12p40) was “statistically significant decrease”. The “change in serum bFGF” value (bFGF) was “potential trend towards decreased bFGF” and the “patients with grade 3 toxicities that did not meet DLT criteria” value [3] was “five”.
In the case of `CCN(CC)CCNC(=O)c1c(C)[nH]c(/C=C2\C(=O)Nc3ccc(F)cc32)c1C` [sunitinib], the tolerability ([4]; HIV patients not taking ritonavir) is listed as “tolerated standard dosing”, the tolerability ([4]; patients receiving ritonavir) is listed as “higher toxicities at lower doses” and the “effect of ritonavir on sunitinib and active metabolite” value ([4]; patients with HIV and cancer) is listed as “decreases in the sunitinib active metabolite but not the parent drug”.
